The results in this text go back to patent US6413529B1, “Antimicrobial wipes which provide improved residual benefit versus gram negative bacteria” (The Procter & Gamble Company, priority 1999, dated 2002).

The assay concerns Microtox Acute Toxicity Reagent (Vibrio fischerio). Description: Microtox Response Test (Microtox Response Index of anionic surfactant). Format: cell-based. The settings on record: pure anionic surfactant; EC50 for 50% decrease of bioluminescence, 5 minutes. The source says: The biological activity/mildness of a pure surfactant can measured directly via a Microtox Response Test hereinafter described in the Analytical Methods section and can be reported as a Microtox Response Index. By “pure surfactant” it is meant a chemical composition consisting essentially of a single surfactant entity, wherein the entity has essentially one chain length, head group and salt counter ion. From a standpoint of high biological activity, preferred anionic surfactants of the antimicrobial cleansing compositions of the present invention have a Microtox Response Index of less that about 150, more preferably less than about 100 and most preferably less than about 50. […]
For surfactant compositions which are mixtures of surfactants rather than pure surfactants (this includes “commercial grade” surfactants which typically comprise mixtures of entities with different chain lengths and potentially have higher levels of impurities), the Microtox Response Index for any individual surfactant component is not a reliable measurement of biological activity or mildness. In the case of mixtures, the Microtox Index of each individual component can be determined and the weighted average used as the Index for the mixture if all the individual components of the mixture are known. […]

As for `CCCCCCCCCCCCOS(=O)(=O)O.N` [ammonium lauryl sulfate], the “Microtox Index” value amounted to 1.0 ppm.
As for ammonium laureth-3 sulfate, the “Microtox Index” value came out at 120 ppm.
